Assay results reported in the NIST ThermoML archive (doi:10.1021/acs.jced.6b00192).

Conditions: Liquid, Vibrating tube method

CCCCOCCO [2-butoxyethan-1-ol]
mass density [kg/m3]
Conditions	283.15 K	293.15 K	303.15 K	313.15 K	323.15 K	333.15 K	343.15 K	353.15 K	363.15 K
100 kPa	907.9	900.5	891.8	883.5	874	865.6	856.5	847.5	838.2
1000 kPa	908.3	900.6	892.1	884	875	866.1	857.4	848.4	839.4
3000 kPa	909.9	902.2	893.9	885.6	876.5	868	859.3	850.5	841.4
5000 kPa	911	903.2	895.4	887.1	878.1	869.5	861.1	852.2	843.4
10000 kPa	914.2	906.8	898.9	890.7	881.9	873.5	865.1	856.7	847.9
15000 kPa	917.1	910	902	894.1	885.5	877.3	869.1	860.9	852.6
20000 kPa	920	912.9	905.5	897.3	889.1	880.9	873.2	864.8	856.4
25000 kPa	922.8	915.9	908.7	900.7	892.1	884.4	876.5	868.7	860.4
30000 kPa	925.6	918.8	911.8	903.6	895.4	887.6	880.1	872.3	864.4
35000 kPa	928.4	921.4	914.5	906.7	898.5	890.8	883.5	875.9	868.1
40000 kPa	930.9	924	916.7	909.4	901.6	894	886.7	879.2	871.8
50000 kPa	935.7	929.5	921.8	915.1	907.3	900.1	893	885.6	878.4
60000 kPa	940.5	933.9	927.1	920.1	912.9	905.7	898.6	891.8	884.8

CCCCOCCOCCO [3,6-dioxa-1-decanol]
mass density [kg/m3]
Conditions	283.15 K	293.15 K	303.15 K	313.15 K	323.15 K	333.15 K	343.15 K	353.15 K	363.15 K
100 kPa	960.4	952.4	943.8	935.5	927	917.8	909.1	901.1	892.6
1000 kPa	961.3	952.9	944.2	935.9	927.3	918.7	910.5	902.1	893.2
3000 kPa	962.6	954.3	946	937.2	928.8	920.7	912.35	903.9	894.9
5000 kPa	963.4	955.2	947	938.8	930.3	922.2	913.6	905.3	896.7
10000 kPa	966.5	958.4	950.3	942	933.8	925.7	917.6	909.3	900.4
15000 kPa	969.4	961.2	953	945.2	937.2	929.2	921.3	913.1	904.8
20000 kPa	971.9	964	956	948.4	940.4	932.5	924.7	916.8	908.5
25000 kPa	974.5	966.9	959.1	951.2	943.5	935.5	928.1	920.3	912.1
30000 kPa	977.1	969.6	962	953.8	946.4	939	931.3	923.7	915.7
35000 kPa	979.1	972	964.7	956.9	949.5	942	934.4	927.1	919.2
40000 kPa	981.4	974.4	967.1	959.7	952.5	945.2	937.3	930.3	922.7
50000 kPa	986.9	979.7	972.2	965	958.2	950.6	943.2	936.3	929.1
60000 kPa	990.4	983.9	977.1	969.7	963.4	956	948.8	942.2	935.2

CCCCOCCOCCOCCCC [5,8,11-trioxapentadecane]
mass density [kg/m3]
Conditions	283.15 K	293.15 K	303.15 K	313.15 K	323.15 K	333.15 K	343.15 K	353.15 K	363.15 K
100 kPa	891.3	882.9	874.5	866.1	857.2	849.1	840.4	832.4	823.4
1000 kPa	891.8	883.1	875.1	866.41	858.2	850	841.7	833	824.8
3000 kPa	893.2	884.8	876.6	868.1	859.8	851.6	843.5	835.1	827.1
5000 kPa	894.3	885.9	878.2	869.8	861.5	853.3	845.5	836.7	828.7
10000 kPa	897.7	889.6	881.8	873.5	865.4	857.5	849.8	841.4	833.5
15000 kPa	900.9	892.9	885.2	877.2	869.2	861.4	853.7	846	838.4
20000 kPa	904.3	896.1	888.42	880.7	873.1	865.4	857.9	850.3	842.8
25000 kPa	906.9	899.3	891.8	884.1	876.5	869	861.6	854	846.8
30000 kPa	909.9	902.3	894.9	887.1	879.8	872.6	865.3	857.9	850.9
35000 kPa	912.8	905.1	897.9	890.5	883.1	875.9	868.9	861.6	854.9
40000 kPa	915.3	907.9	900.8	893.3	886.3	879.5	872.3	865.1	858.5
50000 kPa	920.5	913.6	906.4	899.4	892.4	885.5	878.9	871.5	865.6
60000 kPa	925.4	918.2	911.8	904.9	898.8	891.6	884.7	878.2	872
